Assay results as given in patent publication US20190246646A1 (priority 2016, published 2019).

How the values were obtained:
M. oryzae BOA102 [1] = conditions: for mycelium color / phenotype of the fungal colony: BOA102 exposed to single commercial compound, dual plate; for mycelium growth measured as colony diameter: Student T-test p<0.05
M. oryzae mycelium = conditions: compound added to fungal growth media; untreated black; cited from earlier work
M. oryzae BOA102 [2] = conditions: grown in the presence of Tricyclazole

CC(=O)OCCC(C)C [1-butanol-3-methyl-acetate]
mycelium color / phenotype of the fungal colony (M. oryzae BOA102 [1]): do not induce appreciable phenotype/color variations
mycelium growth measured as colony diameter (M. oryzae BOA102 [1]): significant reduction

CC(C)CCO [1-butanol-3-methyl]
mycelium color / phenotype of the fungal colony (M. oryzae BOA102 [1]): shift from black to white
mycelium growth measured as colony diameter (M. oryzae BOA102 [1]): significant reduction

CC(C)CO [1-propanol-2-methyl]
mycelium color / phenotype of the fungal colony (M. oryzae BOA102 [1]): do not induce appreciable phenotype/color variations
mycelium growth measured as colony diameter (M. oryzae BOA102 [1]): significant reduction

Cc1ccc(C(=O)NC[C@@H](NC(=O)OCC(F)(F)F)C(C)C)cc1 [Tolprocab]
pigmentation of M. oryzae mycelium (M. oryzae mycelium): white

Cc1cccc2sc3nncn3c12 [Tricyclazole]
pigmentation of M. oryzae mycelium (M. oryzae mycelium): orange
color of the mycelium (DHN melanin inhibition phenotype) (M. oryzae BOA102 [2]): orange color

CCO [ethanol]
mycelium color / phenotype of the fungal colony (M. oryzae BOA102 [1]): do not induce appreciable phenotype/color variations
mycelium growth measured as colony diameter (M. oryzae BOA102 [1]): No effect
